US20250092036A1, “COMPOUNDS AND COMPOSITIONS FOR MODULATING THE ACTIVITY OF ERK” (Novartis AG, priority 2023, published 2025)
Where two headings read alike, the source gives them in different places.

Experiments:
[1] = molecular target: T1, nanobit-large-bit-ERK2 and nanobit-small-bit-PEA15 in WM793 cells (Homo sapiens, UniProt P28482); assay: NanoBiT assay; type: cell-based; details: WM793 nanobit stable cell line, overnight incubation; read-out: NanoBiT qualified absolute AC50
T1 construct: expressed in transfected cells
T1 sequence (P28482 whole entry): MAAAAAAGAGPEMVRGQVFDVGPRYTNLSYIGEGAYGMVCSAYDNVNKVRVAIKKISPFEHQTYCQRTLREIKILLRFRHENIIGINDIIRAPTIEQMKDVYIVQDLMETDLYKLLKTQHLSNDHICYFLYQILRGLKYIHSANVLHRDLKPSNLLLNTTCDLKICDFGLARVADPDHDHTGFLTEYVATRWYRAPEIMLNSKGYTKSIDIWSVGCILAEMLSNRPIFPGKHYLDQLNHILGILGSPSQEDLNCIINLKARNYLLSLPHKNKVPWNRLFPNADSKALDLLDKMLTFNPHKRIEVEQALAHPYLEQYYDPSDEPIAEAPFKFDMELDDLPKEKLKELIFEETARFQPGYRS
Method: (§1) Cancer cell media was prepared by adding 500 mL of RPMI (ThermoFisher cat ##22400-089) and 10% Fetal Bovine Serum (Gibco) for WM793 cells (ATCC Cat #CRL-2806, RRID: CVCL 8787) and F12K (Thermo Fisher cat #21127-022, 500 mL; or 21127-030, 10×500 mL)+10% FBS for PC3 (ATCC CRL-1435) cells. The entire media with supplements was filter sterilized through a 0.4 μm bottle top filter system. Cancer cell lines were detached from traditional cell culture flasks by washing three times with 1×PBS and adding an appropriate amount of 0.25% TrypLE™ Express Enzyme (1×), no phenol red (ThermoFisher cat #12604013) to create a thin layer over the cells. Trypsin was neutralized with media containing serum and proceeded to count the cells.
A nanobit stable cell line was generated using WM793 cells with nanobit-large-bit-ERK2 and nanobit-small-bit-PEA15. […] In a biological safety cabinet, cells were seeded using a sterilized small stainless steel tipped cassette on a Multi-drop Combi. Between different cell lines, the tubing of the cassette was flushed with 1× sterile PBS for 10 s. Alternatively, cells can be seeded using a Multi-flow located within a Hepa filtered robotics room using either a sterilized small sapphire jewel tipped cassette and the peristatic pump, or the attached syringe pump, depending on volume of plates per cell line needed. The plates were placed in an incubator set at 37° C., with 5% CO2 and 95% relative humidity. A 10-point, 3-fold serial dilution of compounds was prepared in 100% DMSO on a liquid handling robot with a 10 mM top concentration. 90 nl/well was dispensed in three assay plates/1 compound source plate, with the highest concentration at 30 μM. After addition of compound was complete, the plates were placed into an incubator at 37° C., with 5% CO2 and 95% relative humidity for overnight. Luminescence was captured on a plate luminometer such as an Envision or View Lux to measure Day 0 time point both select cell lines. LUM plus, gain 3500, 0.1 s and focal height 12.5 [mm] on PheraStar reader. The raw data was extracted from the instrument and normalized all fields containing test compounds to the average of all wells containing DMSO alone as neutral control. From this value, the percent growth inhibition was calculated for each compound. Dose response curves and inhibitory IC50s were generated by graphing the normalized data values against the compound concentration using either a program such as GraphPad™ or Excel Fit.

WM793 cells = assay: Cell proliferation assay (CellTiter-Glo); type: cell-based; details: 3 d, read-out: Cell proliferation qualified AC50
Method: as §1
After counting the cells, the concentration of the cell solution was adjusted to seed a total of 750 cells per well in 50 μL of complete media into 384-well tissue culture treated plates. In a biological safety cabinet, cells were seeded using a sterilized small stainless steel tipped cassette on a Multi-drop Combi. Between different cell lines, the tubing of the cassette was flushed with 1× sterile PBS for 10 seconds. Alternatively, cells can be seeded using a Multi-flow located within a Hepa filtered robotics room using either a sterilized small sapphire jewel tipped cassette and the peristatic pump, or the attached syringe pump, depending on volume of plates per cell line needed. The plates were placed in an incubator set at 37° C., with 5% CO2 and 95% relative humidity. A 10-point, 3-fold serial dilutions of compounds in 100% DMSO was prepared on a liquid handling robot with a 10 mM top concentration. 100 nL/well in three assay plates/1 compound was dispensed to source plate, with the highest concentration at 20 μM. After addition of compound was complete, plates were placed into an incubator at 37° C., with 5% CO2 and 95% relative humidity for 3 d. An adequate volume of CellTiter-Glo® (Promega #G7571) detection reagent was pre-warmed to RT or in a 37° C. H2O bath. 25 μL of the reagent was added to each well using either a Multi-drop Combi or MultiFlo and incubate at RT for at least 15 min. Luminesce was captured on a plate luminometer such as an Envision or View Lux to measure Day 0 time point both select cell lines. LUM plus, gain 3500, 0.1 s and focal height 12.5 mm on PheraStar reader. At Day 3, an adequate volume of CellTiter-Glo® detection reagent was pre-warmed at RT or in a 37° C. H2O bath. A total of 25 μL of the reagent was added to each well using either a Multi-drop Combi or MultiFlo and incubate at RT for at least 15 min. Luminesce was captured on a plate luminometer such as an Envision or View Lux to measure Day 3 time point both select cell lines. LUM plus, gain 3500, 0.1 s and focal height 12.5 mm on PheraStar reader. Raw data was extracted from the instrument and all fields containing test compounds were normalized to the average of all wells containing DMSO alone from Day 3 as neutral control and Day 0 starting numbers. From this value, percent growth inhibition of each compound was calculated. Dose response curves and growth inhibitory IC50s were generated by graphing the normalized data values against the compound concentration using a program such as GraphPad™ or Excel Fit.

[2] = system: WM793 BRAFV600E tumor xenograft; assay: Anti-tumor activity and tolerability in WM793 BRAFV600E tumor xenograft in nude rats; type: in vivo; details: per os
Method: Female RNU rats (Charles River, 4-5 weeks of age) were acclimatized into animal facility and pretreated with 100 mg/kg cyclophosphamide IP at 10 ml/kg 24 hrs prior to tumor implant. Nude rats were subcutaneously implanted on the right side with WM793 BRAF^V600E tumors via fragments (20-40 mg) from a previously passaged tumor with sterile techniques under isoflurane anesthesia using a 10 gauge trocar (n=4/group). Body weights were monitored at least once a week and calculated as (BWcurrent−BWinitial)/(BWinitial)×100%. After 1-3 weeks when palpable tumors developed, tumor volumes were monitored at least once a week by caliper measurements. Tumor volumes (mm^3) were calculated as (length×width×width)/2. Rats were randomized and selected for study based on tumor sizes (100-200 mm^3) and appropriate health conditions. Compounds of Formula I, formulated in either 20% HPBCD at 5 mg/ml or 20% HPBCD at 2.5 mg/ml were dosed at 10 ml/kg per os. Animals were euthanized based on poor health conditions, tumor volumes exceeded 2500 mm^3, or have reached the end of study. Regression % was calculated by 100×ΔT/Tinitial if ΔT<0, in which ΔT is the change of tumor volume.

[3] = molecular target: T2, ERK2[2-360(p-T185/p-Y187)]-Avi (Homo sapiens, UniProt P28482); assay: Biochemical assay (HTRF competition assay); type: binding; details: HTRF competition with Example 15 probe, overnight at RT; read-out: Biochemical qualified AC50
T2 construct: 400 pM ERK2[2-360(p-T185/p-Y187)]-Avi was added to the plate
T2 sequence (P28482 2-360 limits assumed): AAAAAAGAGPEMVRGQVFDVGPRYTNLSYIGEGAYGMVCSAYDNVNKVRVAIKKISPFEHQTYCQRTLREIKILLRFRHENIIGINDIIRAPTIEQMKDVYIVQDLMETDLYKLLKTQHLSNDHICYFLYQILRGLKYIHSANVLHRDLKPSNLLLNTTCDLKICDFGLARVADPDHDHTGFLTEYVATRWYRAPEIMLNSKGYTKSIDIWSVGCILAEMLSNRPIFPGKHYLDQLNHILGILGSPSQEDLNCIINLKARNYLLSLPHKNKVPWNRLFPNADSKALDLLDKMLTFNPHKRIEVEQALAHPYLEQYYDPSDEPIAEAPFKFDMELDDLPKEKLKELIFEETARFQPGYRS
Method: The competition assays were performed at RT in a 384-well white polystyrene, flat bottom plate (Greiner #784075) using a final reaction volume of 15 μL and the following assay buffer conditions: 50 mM MOPS, pH 7.2, 10 mM MgCl2, 0.5 mM TCEP, 0.01% Triton-X-100. 75 nL of a 10 mM compound solution in DMSO or 100% DMSO (12 point titration, final concentration: 50 μM-300 pM; final DMSO: 0.5%) was added using an acoustic liquid handler (Echo, Beckman Coulter) to wells containing 7.5 μL of 1-(6-((R)-3-(1-(5-chloro-1-((tetrahydro-2H-pyran-4-yl)methyl)-1H-indole-3-carbonyl)-4-(4-fluorophenyl)piperidine-4-carboxamido)pyrrolidin-1-yl)-6-oxohexyl)-3,3-dimethyl-5-sulfo-2-((1E,3E)-5-((E)-1,3,3-trimethyl-5-sulfoindolin-2-ylidene)penta-1,3-dien-1-yl)-3H-indol-1-ium (Example 15); 7.5 μL 400 pM SA-Tb (Cisbio, 610SATLB) and 400 pM ERK2[2-360(p-T185/p-Y187)]-Avi was added to the plate and incubated overnight at RT. HTRF signal was measured using a microplate reader (PheraStar, BMG Labtech) with excitation and emission wavelengths of […], respectively. The inhibitor dose-response curves were analyzed from the HTRF ratio signal using normalized IC50 regression curve fitting with control-based normalization.

[4] = system: WM793 BRAFV600E tumor xenograft; assay: Anti-tumor activity and tolerability in WM793 BRAFV600E tumor xenograft in nude mice; type: in vivo

Row | Structure (SMILES) | AC50 [1] | AC50 (WM793 cells) | Percent body weight change following first dose / tolerability [2] | anti-tumor activity (tumor volume) ([2]; 22 days, dose not given) | AC50 [3] | AC50 (WM793 cells; Homo sapiens, WM793, 72 h) | anti-tumor activity (tumor volume) with holiday break ([2]; 50 mg/kg bid for 5 days with 2 day break) | anti-tumor activity (tumor volume) ([2]; 50 mg/kg bid for 22 days) | animals sacrificed due to increased body weight loss ([4]; highest dosing group (300 mg/kg bid 2 day on, 1 day off)) | anti-tumor activity (tumor volume) at the highest dose ([4]; per os, 300 mg/kg bid 2 day on, 1 day off, 14 days) | anti-tumor activity (tumor volume) ([4]; per os, 30, 75, 150 mg/kg bid and 300 mg/kg bid 2 day on, 1 day off, 14 days) | Percent body weight change following first dose / tolerability ([4]; per os, 30-300 mg/kg bid, 14 days)
1 | CC(C)OC1CCC(C2CN(C(=O)N3CC[C@@](C(=O)N[C@H]4CC[C@H](C(=O)O)C[C@@H]4C)(c4ccc(F)cc4)C[C@@H]3C)c3cc(F)ccc32)CC1 (stereo partly drawn) [Example 4, (1S,3S,4S)-4-((2S,4S)-1-(6-fluoro-3-((1R,4S)-4-isopropoxycyclohexyl)indoline-1-carbonyl)-4-(4-fluorphenyl)-2-methylpiperidine-4-carboxamido)-3-methylcyclohexane-1-carboxylic acid] | 20 nM | 3 nM | well tolerated | regression | 0.47 nM |  |  |  |  |  |  | 
2 | CCc1c(C[C@H]2CC[C@H](OC3CCOCC3)CC2)c2ccc(F)cc2n1C(=O)N1CCC(C(=O)N[C@H]2CC[C@H](C(=O)O)C[C@@H]2C)(c2ccc(F)cc2)CC1 [Example 5, (1S,3S,4S)-4-(1-(2-ethyl-6-fluoro-3-(((1r,4S)-4-((tetrahydro-2H-pyran-4-yl)oxy)cyclohexyl)methyl)-1H-indole-1-carbonyl)-4-(4-fluorophenyl)piperidine-4-carboxamido)-3-methylcyclohexane-1-carboxylic acid] | 66 nM |  | well tolerated |  | 0.7 nM | 24 nM | tumor regression, which is maintained | tumor regression |  |  |  | 
3 | CN1CC[C@@H](NC(=O)C2(c3ccc(Cl)cc3)CCN(C(=O)c3c(C=O)n(CC4CCOCC4)c4ccc(Cl)cc34)CC2)C1 [Example 11b] | 560 nM |  |  |  | 0.65 nM | 220 nM |  |  |  |  |  | 
4 | CC(C)O[C@H]1CC[C@H](Cn2c(C=O)c(C(=O)N3CCC(C(=O)N[C@H]4CC[C@H](C(=O)O)C[C@@H]4C)(c4ccc(F)cc4)CC3)c3cc(Cl)cnc32)CC1 [Example 11g] | 270 nM |  |  |  | 0.36 nM | 610 nM |  |  |  |  |  | 
5 | CC(C)O[C@H]1CC[C@H](Cn2c(C=O)c(C(=O)N3CCC(C(=O)N[C@H]4CC[C@H](C(=O)O)C[C@@H]4C)(c4ccc(F)cc4)CC3)c3cc(Cl)ccc32)CC1 [Example 11h] | 54 nM |  |  |  | < 0.28 nM | 120 nM |  |  |  |  |  | 
6 | Cc1c(C(=O)N2CCC(C(=O)N[C@H]3CN(C)C[C@H]3F)(c3ccc(F)cc3)CC2)c2cc(Cl)ccc2n1CC1CCOCC1 [Example 12, 1-(5-chloro-2-methyl-1-((tetrahydro-2H-pyran-4-yl)methyl)-1H-indole-3-carbonyl)-N-((3S,4R)-4-fluoro-1-methylpyrrolidin-3-yl)-4-(4-fluorophenyl)piperidine-4-carboxamide] | 350 nM |  |  |  | 1.3 nM | 270 nM |  |  |  |  |  | 
7 | CN1C[C@@H](F)[C@@H](NC(=O)C2(c3ccc(F)cc3)CCN(C(=O)c3c(C=O)n(CC4CCOCC4)c4ccc(Cl)cc34)CC2)C1 [Example 13, 1-(5-chloro-2-formyl-1-((tetrahydro-2H-pyran-4-yl)methyl)-1H-indole-3-carbonyl)-N-((3S,4R)-4-fluoro-1-methylpyrrolidin-3-yl)-4-(4-fluorophenyl)piperidine-4-carboxamide] | 56 nM |  |  |  | 0.48 nM | 54 nM |  |  | One mouse at the highest dosing group was sacrificed on day 11 | regression | dose dependent antitumor activity | minimal body weight loss and is well tolerated
